In patent publication US11161989B2, “Near-infrared absorbing composition, optical structure, and camera module and electronic device comprising the same” (priority 2018, dated 2021):

How the values were obtained:
[1] = Wavelength vs. absorbance of near-infrared absorbing compositions (UV-Vis spectrophotometer); assay type: physicochemical; conditions: for A430-565 (average absorbance in a visible light wavelength region) / λNIR (maximum absorption wavelength): 10 mg/mL in THF; for ANIR (maximum absorbance): THF concentration condition of 10 mg/mL; for Absorption area of near-infrared wavelength region: curve integrated from 700 nm to 1100 nm; for Absorption area of near-infrared wavelength region / Cut-off wavelength: composition in THF; for Cut-off wavelength: wavelength of 50% light transmittance after normalizing maximum absorbance to 1
Source text: In Table 3, the “absorption area of a near-infrared wavelength region” is an area obtained by integrating each curve in a wavelength range from 700 nm to 1100 nm in FIG. 7, and the “cut-off wavelength” is a wavelength where each curve has light transmittance of 50% after normalizing absorbance corresponding to a y-axis of FIG. 7 to have a maximum absorbance of 1 and then, converting the normalized absorbance (An) into light transmittance (T) to satisfy Equation 1. T (%)=10^(2-An).

[2] = Solubility of the copper complex in an organic solvent; assay type: physicochemical; conditions: organic solvent THF
Procedure: In Table 1, the “solubility” is evaluated as °, when greater than or equal to 50 wt % of a copper complex based on 100 wt % of an entire composition is dissolved in a corresponding organic solvent, and as X, when less than 50 wt % of a copper complex based on 100 wt % of an entire composition is dissolved in a corresponding organic solvent, and “ANIR” is measured under a THF concentration condition of 10 mg/m L.
In Table 2, “solubility” uses the same reference as Table 1.

O=C([O][Cu][O]C(=O)C(F)(F)F)C(F)(F)F [Comparative Example 1, reference compound]
A430-565 (average absorbance in a visible light wavelength region) [1]: 0.020 | λNIR (maximum absorption wavelength) [1]: 771 nm | ANIR (maximum absorbance) [1]: 1.05 | Absorption area of near-infrared wavelength region [1]: 328 | Cut-off wavelength [1]: 636 nm | Solubility [2]: ∘

C=C(C)C(=O)OCCOP(=O)(O)[O][Cu][O]C(=O)C(F)(F)F [Example 5]
A430-565 (average absorbance in a visible light wavelength region) [1]: 0.010 | λNIR (maximum absorption wavelength) [1]: 814 nm | ANIR (maximum absorbance) [1]: 0.66 | Solubility [2]: ∘

CC(C)OP(=O)(O)[O][Cu][O]C(=O)C(F)(F)F [Example 3]
A430-565 (average absorbance in a visible light wavelength region) [1]: 0.008 | λNIR (maximum absorption wavelength) [1]: 794 nm | ANIR (maximum absorbance) [1]: 1.04 | Solubility [2]: ∘

Cc1ccc(S(=O)(=O)[O][Cu][O]C(=O)C(F)(F)F)cc1 [Example 6]
A430-565 (average absorbance in a visible light wavelength region) [1]: 0.006 | λNIR (maximum absorption wavelength) [1]: 825 nm | ANIR (maximum absorbance) [1]: 0.70 | Absorption area of near-infrared wavelength region [1]: 234 | Cut-off wavelength [1]: 676 nm | Solubility [2]: ∘

O=C([O][Cu][O]P(=O)(Oc1ccccc1)Oc1ccccc1)C(F)(F)F [Example 4]
A430-565 (average absorbance in a visible light wavelength region) [1]: 0.005 | λNIR (maximum absorption wavelength) [1]: 814 nm | ANIR (maximum absorbance) [1]: 0.85 | Solubility [2]: ∘

CCOP(=O)(O)[O][Cu][O]C(=O)C(F)(F)F [Example 2]
A430-565 (average absorbance in a visible light wavelength region) [1]: 0.013 | λNIR (maximum absorption wavelength) [1]: 794 nm | ANIR (maximum absorbance) [1]: 1.16 | Solubility [2]: ∘

C=C(C)C(=O)OCCOP(=O)(O)[O][Cu][O]P(=O)(O)OCCOC(=O)C(=C)C [Comparative Example 2, reference compound]
A430-565 (average absorbance in a visible light wavelength region) [1]: 0.001 | λNIR (maximum absorption wavelength) [1]: 826 nm | ANIR (maximum absorbance) [1]: 0.42 | Absorption area of near-infrared wavelength region [1]: 144 | Cut-off wavelength [1]: 740 nm | Solubility [2]: ∘
